From patent publication US20240385177A1, “Screening Method Using Brown Adipocytes” (KATAOKA CORPORATION, priority 2021, published 2024)
“Also recorded” adds a separate entry of the source.

System: low-molecular-weight compound-induced brown adipocytes (ciBAs)
Experiment: Evaluation of browning tendency of ciBAs directly induced from human fibroblasts (Ucp1/Fabp4/Cidea expression, UCP1 protein, induction efficiency, mtDNA, OCR)
Assay type: cell-based
Settings: human fibroblasts cultured 3 weeks
Method: The human fibroblasts used as material were purchased from DS Pharma Biomedical, Co., Ltd. The fibroblasts are derived from human skin. The above human fibroblasts were seeded in 35 mm dishes coated with gelatin (Cat #: 190-15805, manufactured by FUJIFILM Wako Pure Chemical Co.) at 5×10^4, and cultured in DMEM medium (Cat #: 11965092; manufactured by Gibco) supplemented with 10% fetal bovine serum (FBS), 100 U/mL penicillin, 100 μg/mL streptomycin until 80% to 90% confluency at 37° C., 5% CO2.
Then, after the human fibroblasts reached 80 to 90% confluency, the medium in the dish was replaced with the serum-free brown adipocyte-inducing medium “SFBAM” described below, and the human fibroblasts were cultured in SFBAM for 3 weeks. To induce ciBA, SFBAM was further supplemented with rosiglitazone (selective PPARγ agonist; 184-02651, manufactured by FUJIFILM Wako Pure Chemical Corporation) at a final concentration of 1 μmol/L, forskolin (cAMP inducer; 063-02193) at a final concentration of 7.5 μmol/L and BMP7 (bone morphogenetic protein; 026-19171, manufactured by FUJIFILM Wako Pure Chemical Corporation) at a final concentration of 20 ng/mL, and human fibroblasts were cultured for 3 weeks. Separately, capsaicin (TRPV1 agonist; 030-11353, manufactured by FUJIFILM Wako Pure Chemical Corporation) and/or nonivamide (TRPV1 agonist; sc-202735, Santa Cruz Biotechnology (manufactured by Santa Cruz Biotechnology, CA, USA), capsazepine (TRPV1 antagonist; 037-23171, manufactured by FUJIFILM Wako Pure Chemical Corporation), AMG9810 (TRPV1 antagonist; 015-25071, FUJIFILM Wako Pure Chemical Corporation), GSK1016790A (TRPV4 agonist; G0798, manufactured by Sigma-Aldrich) were added and human fibroblasts were cultured for 3 weeks. Medium was changed every 3 days.
SFBAM is a serum-free brown adipocyte-inducing medium prepared by adding each ingredient in Table 1 to DMEM medium (Cat #: 11965092; manufactured by Gibco).
To quantify gene expression, total RNA was extracted from fibroblasts treated with each compound using the FastGene (registered trademark) RNA basic kit (manufactured by Nippon Genetics). As a control, fibroblasts were cultured in parallel using SFBAM and total RNA was extracted from compound-induced brown adipocytes and control cells. After reverse transcription by ReverTraAce (registered trademark) PCR RT Master Mix with gDNA Remover (manufactured by Toyobo), Real-time PCR analysis was performed using Power SYBR Green PCR Master Mix (manufactured by Thermo Fisher Scientific). Three reactions were performed per level under the following conditions. • After 10 minutes at 95° C., • The cycle time is 15 seconds at 95° C., followed by 60 seconds at 60° C., for 40 cycles.
All results were standardized by the amount of Tbp mRNA.
Immunocytochemistry was performed as previously reported (Dai P, et al. J Clin Biochem Nutr. 2015; 56(3): 166-70). First, cells were fixed with 4% paraformaldehyde (manufactured by Nacalai Tesque). After washed with phosphate-buffered saline (PBS) three times, the cells were incubated with PBS containing 0.1% Triton X-100 for 10 minutes. The cells were then blocked with PBS containing 3% skim milk for 1hour at room temperature. UCP-1 antibodies (ab10983, manufactured by Abcam, Cambridge, UK) were diluted 1/500 with the blocking solutions. The cells were incubated with the antibodies overnight at 4° C. […] All images were acquired using a fluorescence microscopy (BZ-X710-All-in-One Fluorescence Microscope, manufactured by Keyence). […]

[1] = TRPV1 antagonist added to culture with RoFB and capsaicin (25 μmol/L), FIGS. 8, 9
[2] = compound added to SFBAM with rosiglitazone, forskolin and BMP7 (RoFB), FIGS. 1-7, 10-12

Row | Compound | browning tendency of ciBAs [1] | browning tendency of ciBAs [2]
1 | Oc1cc2c(cc1O)CN(C(=S)NCCc1ccc(Cl)cc1)CCC2 [capsazepine] | suppressed the browning tendency | 
2 | COc1cc(CNC(=O)CCCC/C=C/C(C)C)ccc1O [capsaicin] |  | enhanced; also recorded: promotes adipocyte browning
3 | CC(C)C[C@H](NC(=O)c1cc2ccccc2s1)C(=O)N1CCN(C(=O)[C@H](CO)NS(=O)(=O)c2ccc(Cl)cc2Cl)CC1 [GSK1016790A] |  | suppressed; also recorded: inhibits adipocyte browning
4 | CC(C)(C)c1ccc(/C=C/C(=O)Nc2ccc3c(c2)OCCO3)cc1 [AMG9810] | suppressed the browning tendency | 
5 | CCCCCCCCC(=O)NCc1ccc(O)c(OC)c1 [nonivamide] |  | increased the browning tendency
